Assay in all cases: biochemical
Holding throughout (parameters): KINOMEscan scanMAX active site-directed competition binding assay, percent of control, 468 kinases
Common to all, as to settings: competition binding, percent of control

Experiment [1] has as its target CAMK1G (Homo sapiens, UniProt Q96NX5). In outline:
(§1)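 Single-concentration screen (100 μM S-carvone) in a competition binding panel of 468 human kinases (KINOMEscan scanMAX); results given as percent of control, hit cutoff 35%.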

Experiment [2] deals with EPHA7 (Homo sapiens, UniProt Q15375). In outline:
as §1

Experiment [3] has as its target T1, ERK1 (Homo sapiens, UniProt P27361).
T1 construct: gene MAPK3
The method, boiled down: as §1

Experiment [4] has as its target FGR (Homo sapiens, UniProt P09769). The method, boiled down: as §1
In experiment [5] the target is KIT (Homo sapiens, UniProt P10721). The method, boiled down: as §1
For experiment [6], the target named is KIT-autoinhibited (Homo sapiens, UniProt P10721). The method, boiled down:
as §1

The target in experiment [7] is LATS1 (Homo sapiens, UniProt O95835). In outline: as §1
In experiment [8] the target is LRRK2 (Homo sapiens, UniProt Q5S007). The method, boiled down: as §1
Experiment [9] deals with MAP3K1 (Homo sapiens, UniProt Q13233). The method, boiled down: as §1
Chain of MAP3K1 (Q13233 whole entry): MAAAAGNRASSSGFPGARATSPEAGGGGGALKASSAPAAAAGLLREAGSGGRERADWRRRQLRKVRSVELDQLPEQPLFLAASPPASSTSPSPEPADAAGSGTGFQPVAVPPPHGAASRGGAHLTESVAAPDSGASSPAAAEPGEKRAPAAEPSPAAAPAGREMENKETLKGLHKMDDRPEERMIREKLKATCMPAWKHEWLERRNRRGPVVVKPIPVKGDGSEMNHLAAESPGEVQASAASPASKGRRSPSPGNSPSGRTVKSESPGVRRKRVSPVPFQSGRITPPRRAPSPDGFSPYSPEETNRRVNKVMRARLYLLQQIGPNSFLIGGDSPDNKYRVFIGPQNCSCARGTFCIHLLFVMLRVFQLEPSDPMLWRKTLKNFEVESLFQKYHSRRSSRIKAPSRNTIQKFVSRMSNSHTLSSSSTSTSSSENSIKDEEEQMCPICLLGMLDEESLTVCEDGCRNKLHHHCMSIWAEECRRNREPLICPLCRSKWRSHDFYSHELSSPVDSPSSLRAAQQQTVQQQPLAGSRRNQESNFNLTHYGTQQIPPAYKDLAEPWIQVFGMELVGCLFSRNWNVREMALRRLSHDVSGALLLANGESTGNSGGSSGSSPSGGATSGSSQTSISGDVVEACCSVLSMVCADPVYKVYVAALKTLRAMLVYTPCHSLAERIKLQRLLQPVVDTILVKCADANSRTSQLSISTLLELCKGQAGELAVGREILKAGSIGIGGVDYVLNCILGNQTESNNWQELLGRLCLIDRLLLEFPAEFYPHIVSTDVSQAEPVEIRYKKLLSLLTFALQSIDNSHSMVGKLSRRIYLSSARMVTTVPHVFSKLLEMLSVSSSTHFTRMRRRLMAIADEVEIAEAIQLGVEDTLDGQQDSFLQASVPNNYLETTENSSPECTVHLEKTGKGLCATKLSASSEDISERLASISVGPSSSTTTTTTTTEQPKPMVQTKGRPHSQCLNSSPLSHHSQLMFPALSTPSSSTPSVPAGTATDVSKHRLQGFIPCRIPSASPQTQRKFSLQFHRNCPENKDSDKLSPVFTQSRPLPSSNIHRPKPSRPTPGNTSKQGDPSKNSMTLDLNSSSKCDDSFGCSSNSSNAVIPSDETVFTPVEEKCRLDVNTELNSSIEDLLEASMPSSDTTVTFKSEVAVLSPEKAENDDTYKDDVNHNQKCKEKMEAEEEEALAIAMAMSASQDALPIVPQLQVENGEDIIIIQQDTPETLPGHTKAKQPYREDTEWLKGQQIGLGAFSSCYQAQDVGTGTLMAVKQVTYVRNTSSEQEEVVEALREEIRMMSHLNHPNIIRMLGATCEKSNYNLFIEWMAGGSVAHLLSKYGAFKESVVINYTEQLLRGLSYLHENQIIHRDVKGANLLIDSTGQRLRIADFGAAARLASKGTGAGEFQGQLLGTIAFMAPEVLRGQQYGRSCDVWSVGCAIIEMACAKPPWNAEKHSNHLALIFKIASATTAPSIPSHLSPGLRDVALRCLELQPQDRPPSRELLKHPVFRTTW
For experiment [10], the target named is MAP3K4 (Homo sapiens, UniProt Q9Y6R4). The method, boiled down: as §1
For experiment [11], the target named is MELK (Homo sapiens, UniProt Q14680). In outline:
as §1

The target of experiment [12] is NEK3 (Homo sapiens, UniProt P51956). The method, boiled down:
as §1

The target in experiment [13] is PAK3 (Homo sapiens, UniProt O75914). The method, boiled down: as §1
In experiment [14] the target is PDPK1 (Homo sapiens, UniProt O15530). In outline: as §1
Chain of PDPK1 (O15530 whole entry): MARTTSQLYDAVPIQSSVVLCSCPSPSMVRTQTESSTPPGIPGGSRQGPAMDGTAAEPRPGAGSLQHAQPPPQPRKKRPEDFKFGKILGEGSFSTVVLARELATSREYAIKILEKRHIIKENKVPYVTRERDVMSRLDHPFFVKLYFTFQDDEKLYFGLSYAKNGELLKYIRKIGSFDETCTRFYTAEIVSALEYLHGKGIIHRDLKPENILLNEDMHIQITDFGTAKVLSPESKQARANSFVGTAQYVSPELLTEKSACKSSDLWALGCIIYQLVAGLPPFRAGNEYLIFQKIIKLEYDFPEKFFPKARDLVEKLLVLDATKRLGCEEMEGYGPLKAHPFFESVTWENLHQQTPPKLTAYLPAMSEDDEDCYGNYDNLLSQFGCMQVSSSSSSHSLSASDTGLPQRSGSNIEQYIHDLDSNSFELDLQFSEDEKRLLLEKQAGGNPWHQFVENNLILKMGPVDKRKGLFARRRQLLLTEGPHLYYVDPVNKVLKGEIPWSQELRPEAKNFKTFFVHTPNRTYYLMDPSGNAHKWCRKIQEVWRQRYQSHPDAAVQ
The target in experiment [15] is PIK3CA(C420R) (Homo sapiens, UniProt P42336, C420R). In outline:
as §1

Experiment [16] has as its target PIK3CA(Q546K) (Homo sapiens, UniProt P42336, Q546K). The method, boiled down:
as §1

For experiment [17], the target named is T2, PKAC-beta (Homo sapiens, UniProt P22694).
T2 construct: gene PRKACB
The method, boiled down: as §1

Experiment [18] deals with PLK2 (Homo sapiens, UniProt Q9NYY3). The method, boiled down: as §1
Chain of PLK2 (Q9NYY3 whole entry): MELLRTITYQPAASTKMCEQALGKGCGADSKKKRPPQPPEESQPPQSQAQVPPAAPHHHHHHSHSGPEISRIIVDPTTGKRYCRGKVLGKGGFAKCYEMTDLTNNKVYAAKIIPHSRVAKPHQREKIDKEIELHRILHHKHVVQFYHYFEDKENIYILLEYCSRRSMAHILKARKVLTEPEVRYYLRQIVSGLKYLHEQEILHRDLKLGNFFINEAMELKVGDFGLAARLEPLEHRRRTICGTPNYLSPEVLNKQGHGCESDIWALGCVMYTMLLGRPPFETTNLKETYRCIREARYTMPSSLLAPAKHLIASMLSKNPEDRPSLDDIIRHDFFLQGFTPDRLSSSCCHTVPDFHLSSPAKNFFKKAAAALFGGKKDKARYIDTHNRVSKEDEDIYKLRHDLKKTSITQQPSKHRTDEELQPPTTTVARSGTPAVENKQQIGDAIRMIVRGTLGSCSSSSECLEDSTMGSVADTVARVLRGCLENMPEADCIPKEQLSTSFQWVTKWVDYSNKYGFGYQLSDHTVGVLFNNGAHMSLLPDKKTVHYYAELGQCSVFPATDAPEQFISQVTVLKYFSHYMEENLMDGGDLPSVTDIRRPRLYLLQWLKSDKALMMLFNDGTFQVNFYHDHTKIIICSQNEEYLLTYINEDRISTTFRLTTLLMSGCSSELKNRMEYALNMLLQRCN
Experiment [19] concerns the target T3, RSK1(Kin.Dom.2-C-terminal) (Homo sapiens, UniProt Q15418).
T3 construct: gene RPS6KA1; Kin.Dom.2-C-terminal
In outline: as §1

Experiment [20] addresses T4, RSK4(Kin.Dom.2-C-terminal) (Homo sapiens, UniProt Q9UK32).
T4 construct: gene RPS6KA6; Kin.Dom.2-C-terminal
The method, boiled down: as §1

The target in experiment [21] is STK33 (Homo sapiens, UniProt Q9BYT3). In outline: as §1

Chain of CAMK1G (Q96NX5 whole entry): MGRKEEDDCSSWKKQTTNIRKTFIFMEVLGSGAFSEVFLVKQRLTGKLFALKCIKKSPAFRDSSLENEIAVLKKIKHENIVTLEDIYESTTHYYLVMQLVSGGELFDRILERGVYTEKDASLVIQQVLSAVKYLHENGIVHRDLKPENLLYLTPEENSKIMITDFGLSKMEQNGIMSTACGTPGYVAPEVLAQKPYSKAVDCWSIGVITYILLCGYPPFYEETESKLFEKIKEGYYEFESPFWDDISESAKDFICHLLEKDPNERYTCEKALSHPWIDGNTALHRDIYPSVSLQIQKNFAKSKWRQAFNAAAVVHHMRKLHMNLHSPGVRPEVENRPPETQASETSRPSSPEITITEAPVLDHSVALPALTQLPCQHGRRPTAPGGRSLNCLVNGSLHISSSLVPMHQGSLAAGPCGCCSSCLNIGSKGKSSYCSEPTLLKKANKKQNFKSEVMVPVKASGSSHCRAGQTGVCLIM
T4 sequence (Q9UK32 whole entry): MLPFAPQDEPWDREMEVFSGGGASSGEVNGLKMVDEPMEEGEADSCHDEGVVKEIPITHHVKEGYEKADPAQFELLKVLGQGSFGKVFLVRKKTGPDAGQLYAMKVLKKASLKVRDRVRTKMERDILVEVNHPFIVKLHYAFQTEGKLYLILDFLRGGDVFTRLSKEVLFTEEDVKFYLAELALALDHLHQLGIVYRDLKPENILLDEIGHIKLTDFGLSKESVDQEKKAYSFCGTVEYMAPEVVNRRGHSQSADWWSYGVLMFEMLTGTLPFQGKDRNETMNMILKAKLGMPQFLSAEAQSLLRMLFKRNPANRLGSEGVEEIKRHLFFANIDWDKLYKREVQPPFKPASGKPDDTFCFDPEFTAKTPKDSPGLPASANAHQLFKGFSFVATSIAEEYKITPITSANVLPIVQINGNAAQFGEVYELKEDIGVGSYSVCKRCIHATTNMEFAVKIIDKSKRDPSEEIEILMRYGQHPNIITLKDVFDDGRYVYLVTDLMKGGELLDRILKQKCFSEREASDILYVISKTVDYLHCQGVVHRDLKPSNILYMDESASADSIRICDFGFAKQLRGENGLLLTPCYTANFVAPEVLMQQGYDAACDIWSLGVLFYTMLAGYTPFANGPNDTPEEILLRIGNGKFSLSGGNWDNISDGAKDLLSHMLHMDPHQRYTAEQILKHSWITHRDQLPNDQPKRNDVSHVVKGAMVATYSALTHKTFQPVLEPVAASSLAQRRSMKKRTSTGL
Chain of PIK3CA(C420R) (P42336 whole entry C420R): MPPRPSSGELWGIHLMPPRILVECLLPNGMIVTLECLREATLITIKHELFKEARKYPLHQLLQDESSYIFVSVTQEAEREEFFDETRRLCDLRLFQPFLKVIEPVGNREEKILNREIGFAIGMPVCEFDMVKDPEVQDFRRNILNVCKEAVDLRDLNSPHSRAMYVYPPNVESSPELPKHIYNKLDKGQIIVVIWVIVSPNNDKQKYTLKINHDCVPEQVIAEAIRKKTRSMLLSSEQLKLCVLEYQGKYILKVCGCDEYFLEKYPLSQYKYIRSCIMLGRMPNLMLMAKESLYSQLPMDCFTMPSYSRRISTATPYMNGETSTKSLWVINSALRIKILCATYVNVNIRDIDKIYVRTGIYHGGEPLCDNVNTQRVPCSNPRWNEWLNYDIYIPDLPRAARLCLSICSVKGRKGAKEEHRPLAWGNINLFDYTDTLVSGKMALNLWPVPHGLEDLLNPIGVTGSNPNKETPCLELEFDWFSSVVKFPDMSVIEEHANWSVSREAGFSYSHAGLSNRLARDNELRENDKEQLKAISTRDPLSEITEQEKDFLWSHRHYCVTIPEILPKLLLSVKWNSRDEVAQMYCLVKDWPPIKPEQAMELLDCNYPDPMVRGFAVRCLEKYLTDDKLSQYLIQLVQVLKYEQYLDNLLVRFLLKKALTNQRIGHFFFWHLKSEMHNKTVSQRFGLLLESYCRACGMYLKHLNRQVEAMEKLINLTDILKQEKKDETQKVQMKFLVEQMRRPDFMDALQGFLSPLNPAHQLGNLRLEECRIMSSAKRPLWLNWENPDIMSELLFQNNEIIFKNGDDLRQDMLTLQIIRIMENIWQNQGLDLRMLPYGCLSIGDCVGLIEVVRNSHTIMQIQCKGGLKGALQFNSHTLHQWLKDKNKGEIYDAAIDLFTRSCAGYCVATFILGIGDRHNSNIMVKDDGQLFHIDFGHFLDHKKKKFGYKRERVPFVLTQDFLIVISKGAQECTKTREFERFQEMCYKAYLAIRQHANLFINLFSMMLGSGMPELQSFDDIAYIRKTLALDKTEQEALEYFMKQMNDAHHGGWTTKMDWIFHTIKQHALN
Chain of PIK3CA(Q546K) (P42336 whole entry Q546K): as the sequence (P42336 whole entry C420R) above, with R420C, Q546K counted along it

Take `C=C(C)[C@H]1CC=C(C)C(=O)C1` [S-carvone]: the remaining binding at 100 µM in [1] was found to be 89%; in experiment [2] it was 91%; in experiment [3], 75%; in experiment [4] it was 57%; in experiment [5] it was 82%; in experiment [6], 74%. Also, the remaining binding at 100 µM in [7] was 91%; in experiment [8], 100%; in experiment [9], 60%; in [10], 79%; in experiment [11], 99%; in experiment [12], 49%. In addition, the remaining binding at 100 µM in experiment [13] was determined as 78%; in [14], 74%; in [15] it was 96%; in experiment [16], 83%; in [17] it was 84%; in [18], 68%. Moreover, the values for the remaining binding at 100 µM in [19], in experiment [20] and in experiment [21] were 54%, 57% and 100%, respectively.

The values are drawn from PMC10174618, “Monoterpenoid aryl hydrocarbon receptor allosteric antagonists protect against ultraviolet skin damage in female mice” (Nature Communications, 2023).
